Several values for one entry are separate records, joined by “and”; a condition that tells them apart may be missing. Equal values may be shown once. Starred links: 1 amine or outer side, 2 acyl side, 3 side chain; linkers in the order of their positions; H or OH if unused. Positions of bridges follow the written chain, without caps; N, C: chain ends. Non-standard residues stand in square brackets, D forms with d. Residues, ends and D or L forms follow the SMILES beside them. TATA = O=C(CC[*:1])N1CN(C(=O)CC[*:2])CN(C(=O)CC[*:3])C1; Phe(4-F) = N[C@@H](Cc1ccc(F)cc1)C(=O)O; β3hR = N=C(N)NCCC[C@H](N)CC(=O)O
What was measured:
[1] = human; cited from earlier work
uPA = biological target: T1, uPA (Homo sapiens, UniProt P00749); test: Specificity profiling, residual protease activity; type: biochemical
T1 construct: purchased Molecular Innovations
Description: (§1) Protease inhibition assays
(§2) The inhibitory activity of peptides was determined by measuring the residual protease activity with a fluorogenic substrate. The assay was performed in buffer containing 10 mM Tris-Cl, pH […]
(§3) 1% (v/v) DMSO in a volume of 150 µl. […]
(§4) HFXIIAB) were used at final concentrations of 0.4 nM. The reaction was pipetted as follows: 50 µl of bicyclic peptide in assay buffer were added to 50 µl of FXIIa in assay buffer and incubated for 10 minutes at 25°C before 50 µl of 150 µM fluorogenic substrate in assay buffer were added to measure the residual protease activity with an Infinite M200Pro fluorescence plate reader (excitation at 368 nm, emission at 467 nm; Tecan) for a period of 30 minutes with a read every minute at 25°C. The Tecan software i-control (version 1.1) was used for data analysis. Stock solutions of 1 mM bicyclic peptide were prepared by either dissolving the unpurified cyclization reaction with water or by dissolving purified and lyophilized peptide in water. The bicyclic peptides were serially diluted two-fold using assay buffer. Sigmoidal curves were fitted to the data using the following dose response equation (1), wherein x = peptide concentration, y = % protease activity, and p = Hill slope. IC50 values were derived from the fitted curve.
(§5) The inhibition constants (Ki) were calculated according to the equation of Cheng and Prusoff, Ki = IC50/(1+([S]0/Km), wherein IC50 is the functional strength of the inhibitor, [S]0 is the total substrate concentration, and Km is the Michaelis-Menten constant. […]
(§6) For testing the specificity of the bicyclic peptides, the following final concentrations of human serine proteases were used: tPA (Molecular Innovations) 7.5 nM, uPA (Molecular Innovations) 1.5 nM, factor XIa (Innovative Research) 6 nM, plasma kallikrein (Innovative Research) 0.25 nM, thrombin (Molecular Innovations) 1 nM, plasmin (Molecular Innovations) 2.5 nM, trypsin (Molecular Innovations) 0.05 nM, factor VIIa (Haematologic Technologies) 50 nM, factor Xa […]
(§7) (Haematologic Technologies) 6 nM, and activated protein C (APC) 5 nM. Two-fold dilutions of the peptide were prepared that ranged from 0.04 to 40 µM. The following fluorogenic substrates were used at a final concentration of 50 µM: Z-Phe-Arg-AMC (Bachem) for plasma kallikrein; Boc-Phe-Ser-Arg-AMC (Bachem) for factor XIa; Z-Gly-Gly-Arg-AMC (Bachem) for tPA, uPA, thrombin, and trypsin; H-D-Val-Leu-Lys-AMC (Bachem) for plasmin; and D-Phe-Pro-Arg-ANSNH-C4H9 (Haematologic Technologies) for FVIIa and FXa. For APC, the chromogenic substrate pyroGlu-Pro-Arg-pNA (S2366) was used at a concentration of 400 µM. […]

[2] = biological target: activated protein C (APC) (Homo sapiens, UniProt P04070); test: Specificity profiling, residual protease activity (chromogenic substrate); type: biochemical
Description: as §1, §2, §3, §4, §5, §6, §7

[3] = Pharmacokinetic study in pigs (plasma concentration by LC-MS); type: in vivo, pig
Description: Swiss large white pigs, both sexes, 3–4 months old (30 ± 5 kg) were anesthetized and prepared following procedures used to study myocardial ischemia/reperfusion injury. In this procedure, the ACT is monitored and 2500 IU of heparin are injected when ACT values fall below 180 s. Pigs were injected intravenously with 4 mg kg^−1 of FXII900 dissolved in 1 ml PBS, pH 7.4. […] The concentration of FXII900 in the plasma samples was determined by LC-MS as described below.
The concentration of FXII900 in the plasma samples was quantified based on peak intensities of total ion current (TIC) chromatograms acquired by LC-MS (LCMS-2020, Shimadzu). To 15 μl of plasma sample, 1 μM of internal standard peptide and 5 μl of 6 M guanidinium hydrochloride solution were added and mixed. Plasma proteins were precipitated by the addition of 400 µl of ice cold ethanol (99.9% [v/v] EtOH, 0.1% [v/v] TFA) and incubated on ice for one hour. Precipitate was removed by centrifugation (9000 × g, 20 min, 4 °C) and the supernatant dried by centrifugal evaporation under vacuum. Dried samples were dissolved by sequentially adding 2 μl of DMSO and 18 μl of H2O containing 0.1% (v/v) CHOOH and analyzed by LC-MS. The samples were analyzed using an analytical C18 column (Phenomenex C18 Kinetex column, 50 × 2.1 mm, 2.6 µm, 100 Å) and a linear gradient of 5–30% solvent B (MeCN, 0.05% [v/v] CHOOH) in solvent A (H2O, 0.05% [v/v] CHOOH) in 4.5 min at a flow of 1 ml per min. The mass was measured on a single quadrupole mass spectrometer in positive ion mode using electrospray ionization. Peptides were quantified based on the absolute intensities of the detected mass peaks (M^3+ and M^4+).

[4] = inhibitor 39.0625 nM, 0.0390625 µM
[5] = inhibitor 78.125 nM, 0.078125 µM
[6] = inhibitor 156.25 nM, 0.15625 µM
[7] = inhibitor 40000 nM (40 µM), 40 µM

Sequence of activated protein C (APC) (P04070 212-461 limits assumed): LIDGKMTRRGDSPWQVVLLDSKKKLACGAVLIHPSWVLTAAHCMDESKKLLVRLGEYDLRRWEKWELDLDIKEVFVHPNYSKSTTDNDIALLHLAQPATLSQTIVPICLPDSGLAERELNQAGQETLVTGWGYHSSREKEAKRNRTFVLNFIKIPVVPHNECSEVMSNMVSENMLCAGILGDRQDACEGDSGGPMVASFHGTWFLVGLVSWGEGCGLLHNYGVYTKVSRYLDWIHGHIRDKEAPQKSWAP
Sequence of activated protein C (APC) (P04070 43-197 limits assumed): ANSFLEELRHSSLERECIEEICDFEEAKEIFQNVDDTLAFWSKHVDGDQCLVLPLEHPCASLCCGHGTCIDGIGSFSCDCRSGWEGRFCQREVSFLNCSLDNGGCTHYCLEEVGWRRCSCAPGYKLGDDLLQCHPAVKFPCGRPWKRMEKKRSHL

For `CC(C)C[C@@H]1NC(=O)[C@H](CCC(N)=O)NC(=O)[C@H](CCCNC(=N)N)NC(=O)[C@@H]2CSCCC(=O)N3CN(CN(C3)C(=O)CCSC[C@H](NC(=O)[C@@H](N)CCCNC(=N)N)C(=O)N[C@@H](Cc3ccccc3)C(=O)N[C@@H](CCCNC(=N)N)C(=O)N[C@@H](CC(C)C)C(=O)N3CCC[C@H]3C(=O)N2)C(=O)CCSC[C@@H](C(=O)N[C@@H](CCCNC(=N)N)C(N)=O)NC(=O)[C@H](CCCNC(=N)N)NC1=O` [FXII618], the “t1/2 of cleavage of N-terminal Arg1 by plasma proteases” value [1] is listed as “around 4 h”.
In the case of `CC(C)C[C@@H]1NC(=O)[C@H](CCC(N)=O)NC(=O)[C@H](Cc2c[nH]cn2)NC(=O)[C@@H]2CSCCC(=O)N3CN(CN(C3)C(=O)CCSC[C@H](NC(=O)[C@@H](CO)NC(=O)[C@H](N)CCCNC(=N)N)C(=O)N[C@@H](Cc3ccc(F)cc3)C(=O)N[C@@H](CCCNC(=N)N)C(=O)N[C@@H](CC(C)C)C(=O)N3CCC[C@H]3C(=O)N2)C(=O)CCSC[C@@H](C(N)=O)NC(=O)C[C@H](CCCNC(=N)N)NC1=O` [FXII900] (H-[dR][dS]C[Phe(4-F)]RLPCHQL[β3hR]C-NH2; linker 3-8-13 via TATA), the Ki (uPA) is reported as > 40 µM, the remaining activity at 0.0390625 µM (uPA; inhibitor 39.0625 nM) is reported as 96.1% and the “Residual activity of uPa” value (uPA; [4]) is reported as 99.3438%. For the same compound, the remaining activity at 0.078125 µM (uPA; inhibitor 78.125 nM) was 94.9%, the “Residual activity of uPa” value (uPA; [5]) was 99.5842% and the remaining activity at 0.15625 µM (uPA; inhibitor 156.25 nM) was 99.6%. For the same compound, the “Residual activity of uPa” value (uPA; [6]) was 106.929%, the remaining activity at 0.3125 µM (uPA; inhibitor 312.5 nM) was 98.2% and the “Residual activity of uPa” value (uPA; inhibitor 312.5 nM, 0.3125 µM) was 103.987%. For the same compound, the remaining activity at 0.625 µM (uPA; inhibitor 625 nM) was 98.8%, the “Residual activity of uPa” value (uPA; inhibitor 625 nM, 0.625 µM) was 103.035% and the remaining activity at 1.25 µM (uPA; inhibitor 1250 nM) was 100%. The “Residual activity of uPa” value (uPA; inhibitor 1250 nM, 1.25 µM) was 106.211%, the remaining activity at […] (uPA; inhibitor 2500 nM) was 101% and the “Residual activity of uPa” value (uPA; inhibitor 2500 nM, […]) was 90.2133%. The remaining activity at 5 µM (uPA; inhibitor 5000 nM) was 99.4%, the “Residual activity of uPa” value (uPA; inhibitor 5000 nM, 5 µM) was 106.237% and the remaining activity at 10 µM (uPA; inhibitor 10000 nM) was 96.6%. The “Residual activity of uPa” value (uPA; inhibitor 10000 nM, 10 µM) was 102.075%, the remaining activity at 20 µM (uPA; inhibitor 20000 nM) was 96.3% and the “Residual activity of uPa” value (uPA; inhibitor 20000 nM, 20 µM) was 101.698%. The remaining activity at 40 µM (uPA; inhibitor 40000 nM (40 µM)) was 98.7%, the “Residual activity of uPa” value (uPA; [7]) was 97.4594% and 105.626% and the Ki [2] was > 40 µM. For the same compound, the remaining activity at 0.0390625 µM ([2]; inhibitor 39.0625 nM) was 98.1%, the “Residual activity of APC” value [2, 4] was 97.5009% and 97.9227% and the remaining activity at 0.078125 µM ([2]; inhibitor 78.125 nM) was 102%. The “Residual activity of APC” value [2, 5] was 96.3711% and 96.6396%, the remaining activity at 0.15625 µM ([2]; inhibitor 156.25 nM) was 102% and the “Residual activity of APC” value [2, 6] was 97.5779% and 99.0137%. The remaining activity at 0.3125 µM ([2]; inhibitor 312.5 nM) was 102%, the “Residual activity of APC” value ([2]; inhibitor 312.5 nM, 0.3125 µM) was 99.2982% and 100.044% and the remaining activity at 0.625 µM ([2]; inhibitor 625 nM) was 103%. The “Residual activity of APC” value ([2]; inhibitor 625 nM, 0.625 µM) was 98.4851% and 100.174%, the remaining activity at 1.25 µM ([2]; inhibitor 1250 nM) was 103% and the “Residual activity of APC” value ([2]; inhibitor 1250 nM, 1.25 µM) was 97.7747% and 100.567%. For the same compound, the remaining activity at […] ([2]; inhibitor 2500 nM) was 102%, the remaining activity at 5 µM ([2]; inhibitor 5000 nM) was 101% and the “Residual activity of APC” value ([2]; inhibitor 5000 nM, 5 µM) was 97.0131% and 99.7294%. For the same compound, the remaining activity at 10 µM ([2]; inhibitor 10000 nM) was 101%, the “Residual activity of APC” value ([2]; inhibitor 10000 nM, 10 µM) was 97.8346% and 99.7294% and the remaining activity at 20 µM ([2]; inhibitor 20000 nM) was 101%. The “Residual activity of APC” value ([2]; inhibitor 20000 nM, 20 µM) was 96.859% and 99.2406%, the remaining activity at 40 µM ([2]; inhibitor 40000 nM (40 µM)) was 98.3 ± 2.3% and the “Residual activity of APC” value [2, 7] was 100.29% and 95.7977% and 98.8915%. The clearance ([3]; both sexes, Swiss large white, pig, plasma, intravenous, 4 mg kg^−1, read-out: clearance rate (CL)) was 11.8 ± 1.8 mL/min/kg, the Cmax ([3]; both sexes, Swiss large white, pig, plasma, intravenous, 4 mg kg^−1, read-out: maximal concentration) was ~7 µM and the half-life ([3]; both sexes, Swiss large white, pig, plasma, intravenous, 4 mg kg^−1, read-out: t1/2 (t1/2 β)) was 36 ± 5 min. It also gave a Vd ([3]; both sexes, Swiss large white, pig, plasma, intravenous, 4 mg kg^−1, read-out: volume of distribution (VD)) of 0.61 ± 0.14 L/kg, a level at time molar at 4 min ([3]; both sexes, Swiss large white, pig, plasma, iv, 4 mg/kg, intravenous administration, 4 min, individual pigs and analyses, read-out: Plasma conc.) of 7.47 µM and a level at time molar at […] ([3]; both sexes, Swiss large white, pig, plasma, iv, 4 mg/kg, intravenous administration, 15 min, individual pigs and analyses, read-out: Plasma conc.) of 2710 nM. The level at time molar at 16 min ([3]; both sexes, Swiss large white, pig, plasma, iv, 4 mg/kg, intravenous administration, 16 min, individual pigs and analyses, read-out: Plasma conc.) was 3.71 µM, the level at time molar at 35 min ([3]; both sexes, Swiss large white, pig, plasma, iv, 4 mg/kg, intravenous administration, 35 min, individual pigs and analyses, read-out: Plasma conc.) was 1290 nM and the level at time molar at 0.6 h ([3]; both sexes, Swiss large white, pig, plasma, iv, 4 mg/kg, intravenous administration, 36 min, individual pigs and analyses, read-out: Plasma conc.) was 1780 nM. It also gave a level at time molar at 65 min ([3]; both sexes, Swiss large white, pig, plasma, iv, 4 mg/kg, intravenous administration, 65 min, individual pigs and analyses, read-out: Plasma conc.) of 692 nM, a level at time molar at 1.1 h ([3]; both sexes, Swiss large white, pig, plasma, iv, 4 mg/kg, intravenous administration, 66 min, individual pigs and analyses, read-out: Plasma conc.) of 799 nM and a level at time molar at 2 h ([3]; both sexes, Swiss large white, pig, plasma, iv, 4 mg/kg, intravenous administration, 120 min, individual pigs and analyses, read-out: Plasma conc.) of 278 nM. For the same compound, the “Plasma conc.” value ([3]; intravenous administration, 4 min, individual pigs and analyses) was 7.458 µM and 7.475 µM and the “Plasma conc.” value ([3]; intravenous administration, 35 min, individual pigs and analyses) was 1.282 µM.

From PMC7403315, “Cyclic peptide FXII inhibitor provides safe anticoagulation in a thrombosis model and in artificial lungs” (Nature Communications, 2020)
